How the values were obtained:
Set-up in all cases: key: −: no saccharide-transferred product was detected through transfer reaction to acceptor; ±: a saccharide-transferred product was detected in an amount less than one percent through transfer reaction to acceptor; +: a saccharide-transferred product was detected in an amount over one percent but less than 10% through transfer reaction to acceptor; ++: a saccharide-transferred product was detected in an amount over ten percent through transfer reaction to acceptor
[1] = system: α-isomaltosylglucosaccharide-forming enzyme; test: Transfer-acceptor specificity, enzyme of C9 strain; type: biochemical, Bacillus globisporus C9 strain; conditions: acceptor 1.6%, PINE-DEX #100 donor 4%, one unit/g donor, 30° C., pH 6.0, 24 hours
Method: (§1) Using various saccharides, it was tested whether the saccharides were used as transferring-acceptors for α-isomaltosylglucosaccharide-forming enzyme. A solution of D-glucose, D-xylose, L-xylose, D-galactose, D-fructose, D-mannose, D-arabinose, D-fucose, D-psicose, L-sorbose, L-rhamnose, methyl-α-glucopyranoside, methyl-β-glucopyranoside, N-acetyl-glucosamine, sorbitol, α,α-trehalose, isomaltose, isomaltotriose, cellobiose, gentibiose, glycerol, maltitol, lactose, sucrose, α-cyclodextrin, β-cyclodextrin, γ-cyclodextrin, or L-ascorbic acid was prepared. To each solution with a saccharide concentration of 1.6% was added “PINE-DEX #100”, a partial starch hydrolyzate, as a saccharide donor, to give a concentration of 4%, and admixed with one unit/g saccharide donor, d.s.b., of either of purified specimens of α-isomaltosylglucosaccharide-forming enzyme from Bacillus globisporus C9 strain obtained by the method in Experiment 4-2, Bacillus globisporus C11 strain obtained by the method in Experiment 7-2, Bacillus globisporus N75 strain obtained by the method in Experiment 11-2, or Arthrobacter globiformis A19 strain obtained by the method in Experiment 15-2, and incubated at 30° C. and pH 6.0 for 24 hours, except that pH 8.4 was used for the enzyme from Arthrobacter globiformis A19 strain. The reaction mixtures of the post-enzymatic reactions were analyzed on gas chromatography (abbreviated as “GLC” hereinafter) for monosaccharides and disaccharides as acceptors, and on HPLC for trisaccharides as acceptors to confirm whether these saccharides could be used as the transfer acceptors of the above enzymes. In the case of performing GLC, the following apparatuses and conditions were used: GLC apparatus, “GC-16A” commercialized by Shimadzu Corporation, Tokyo, Japan; column, a stainless-steel column, 3 mm in diameter and 2 m in length, packed with 2% “SILICONE OV-17/CHROMOSOLV W”, commercialized by GL Sciences Inc., Tokyo, Japan; carrier gas, nitrogen gas at a flow rate of 40 ml/min under temperature conditions of increasing from 160° C. to 320° C. at an increasing temperature rate of 7.5° C./min; and detection, a hydrogen flame ionization detector. In the case of performing HPLC analysis, the following apparatuses and conditions were used: HPLC apparatus, “CCPD” commercialized by Tosoh Corporation, Tokyo, Japan; column, “ODS-AQ-303” commercialized by YMC Co., Ltd., Tokyo, Japan; eluent, water at a flow rate of 0.5 ml/min; and detection, a differential refractometer.

[2] = system: α-isomaltosylglucosaccharide-forming enzyme; test: Transfer-acceptor specificity, enzyme of C11 strain; type: biochemical, Bacillus globisporus C11 strain; conditions: acceptor 1.6%, PINE-DEX #100 donor 4%, one unit/g donor, 30° C., pH 6.0, 24 hours
Method: as §1

[3] = system: α-isomaltosylglucosaccharide-forming enzyme; test: Transfer-acceptor specificity, enzyme of N75 strain; type: biochemical, Bacillus globisporus N75 strain; conditions: acceptor 1.6%, PINE-DEX #100 donor 4%, one unit/g donor, 30° C., pH 6.0, 24 hours
Method: as §1

[4] = system: α-isomaltosylglucosaccharide-forming enzyme; test: Transfer-acceptor specificity, enzyme of A19 strain; type: biochemical, Arthrobacter globiformis A19 strain; conditions: acceptor 1.6%, PINE-DEX #100 donor 4%, one unit/g donor, 30° C., pH 8.4, 24 hours
Method: as §1

Row | Compound | Product of transferring reaction, Enzyme of C9 strain [1] | Product of transferring reaction, Enzyme of C11 strain [2] | Product of transferring reaction, Enzyme of N75 strain [3] | Product of transferring reaction, Enzyme of A19 strain [4]
1 | C[C@H](O)[C@H](O)[C@@H](O)[C@@H](O)C=O [L-Rhamnose, L-rhamnose] | − | − | − | −
2 | O=C[C@@H](O)[C@@H](O)[C@H](O)[C@H](O)CO [D-Mannose, D-mannose] | − | − | − | ± (a saccharide-transferred product was detected in an amount less than one percent through transfer reaction to acceptor)
3 | OC[C@H]1O[C@@H]2O[C@H]3[C@H](O)[C@@H](O)[C@@H](O[C@H]4[C@H](O)[C@@H](O)[C@@H](O[C@H]5[C@H](O)[C@@H](O)[C@@H](O[C@H]6[C@H](O)[C@@H](O)[C@@H](O[C@H]7[C@H](O)[C@@H](O)[C@@H](O[C@H]8[C@H](O)[C@@H](O)[C@@H](O[C@H]1[C@H](O)[C@H]2O)O[C@@H]8CO)O[C@@H]7CO)O[C@@H]6CO)O[C@@H]5CO)O[C@@H]4CO)O[C@@H]3CO [β-Cyclodextrin, β-cyclodextrin] | − | − | − | −
4 | CO[C@H]1O[C@H](CO)[C@@H](O)[C@H](O)[C@H]1O [Methyl-α-glucopyranoside, methyl-α-glucopyranoside] | ++ (a saccharide-transferred product was detected in an amount over ten percent through transfer reaction to acceptor) | ++ (a saccharide-transferred product was detected in an amount over ten percent through transfer reaction to acceptor) | ++ (a saccharide-transferred product was detected in an amount over ten percent through transfer reaction to acceptor) | ++ (a saccharide-transferred product was detected in an amount over ten percent through transfer reaction to acceptor)
5 | O=C(CO)[C@@H](O)[C@H](O)[C@H](O)CO [D-Fructose, D-fructose] | + (a saccharide-transferred product was detected in an amount over one percent but less than 10% through transfer reaction to acceptor) | + (a saccharide-transferred product was detected in an amount over one percent but less than 10% through transfer reaction to acceptor) | + (a saccharide-transferred product was detected in an amount over one percent but less than 10% through transfer reaction to acceptor) | + (a saccharide-transferred product was detected in an amount over one percent but less than 10% through transfer reaction to acceptor)
6 | O=C[C@H](O)[C@@H](O)[C@@H](O)[C@H](O)CO [D-Galactose, D-galactose] | + (a saccharide-transferred product was detected in an amount over one percent but less than 10% through transfer reaction to acceptor) | + (a saccharide-transferred product was detected in an amount over one percent but less than 10% through transfer reaction to acceptor) | + (a saccharide-transferred product was detected in an amount over one percent but less than 10% through transfer reaction to acceptor) | ± (a saccharide-transferred product was detected in an amount less than one percent through transfer reaction to acceptor)
7 | O=C(CO)[C@@H](O)[C@H](O)[C@@H](O)CO [L-Sorbose, L-sorbose] | + (a saccharide-transferred product was detected in an amount over one percent but less than 10% through transfer reaction to acceptor) | + (a saccharide-transferred product was detected in an amount over one percent but less than 10% through transfer reaction to acceptor) | + (a saccharide-transferred product was detected in an amount over one percent but less than 10% through transfer reaction to acceptor) | + (a saccharide-transferred product was detected in an amount over one percent but less than 10% through transfer reaction to acceptor)
8 | O=C[C@@H](O)[C@H](O)[C@@H](O)CO [L-Xylose, L-xylose] | ++ (a saccharide-transferred product was detected in an amount over ten percent through transfer reaction to acceptor) | ++ (a saccharide-transferred product was detected in an amount over ten percent through transfer reaction to acceptor) | ++ (a saccharide-transferred product was detected in an amount over ten percent through transfer reaction to acceptor) | + (a saccharide-transferred product was detected in an amount over one percent but less than 10% through transfer reaction to acceptor)
9 | OCC(O)CO [Glycerol, glycerol] | + (a saccharide-transferred product was detected in an amount over one percent but less than 10% through transfer reaction to acceptor) | + (a saccharide-transferred product was detected in an amount over one percent but less than 10% through transfer reaction to acceptor) | + (a saccharide-transferred product was detected in an amount over one percent but less than 10% through transfer reaction to acceptor) | + (a saccharide-transferred product was detected in an amount over one percent but less than 10% through transfer reaction to acceptor)
10 | CC(=O)N[C@H]1C(O)O[C@H](CO)[C@@H](O)[C@@H]1O (some centres unmarked) [N-Acetylglucosamine, N-acetyl-glucosamine] | + (a saccharide-transferred product was detected in an amount over one percent but less than 10% through transfer reaction to acceptor) | + (a saccharide-transferred product was detected in an amount over one percent but less than 10% through transfer reaction to acceptor) | + (a saccharide-transferred product was detected in an amount over one percent but less than 10% through transfer reaction to acceptor) | −
11 | O=C1O[C@H]([C@@H](O)CO)C(O)=C1O [L-Ascorbic acid, L-ascorbic acid] | + (a saccharide-transferred product was detected in an amount over one percent but less than 10% through transfer reaction to acceptor) | + (a saccharide-transferred product was detected in an amount over one percent but less than 10% through transfer reaction to acceptor) | + (a saccharide-transferred product was detected in an amount over one percent but less than 10% through transfer reaction to acceptor) | + (a saccharide-transferred product was detected in an amount over one percent but less than 10% through transfer reaction to acceptor)
